Measurements published in patent US20040073973A1, “Plant enzyme and use thereof” (priority 1996, published 2004).

Tests used:
Format in all cases: biochemical, Ulmus glabra
microsomal PLA2 = assay: Substrate specificity of microsomal PLA2
Experimental: (§1) Membrane associated PLA2 activity was assayed according to Stahl et al. (1995) using sn-1-palmitoyl-sn-2-[^14C]decanoyl-sn-glycerol-3-phosphocholine as substrate. In standard assays of the solubilized microsomal activity and of the soluble activity 1-palmitoyl-2-[[…]]palmitoyl-glycerol-sn-3-phosphocholine was used as substrate and was presented as mixed micelles with the non-ionic detergent lubrol PX, in a PC/detergent molar relation of 1:10. Samples, 0.5-10 μl, were assayed for PLA2 activity by incubation at 30° C. for 5-30 min with 5 nmol of ^14C-labelled phosphatidylcholine (10,000 dpm/nmol) in a total volume of 50 μl of 50 mM Tris/HCl, pH 8.0 containing 10 mM CaCl2 and 0.06% (w/v) lubrol PX. The reaction was stopped by the addition of 400 μl of chloroform/methanol/acetic acid 50:50:1 followed by 150 μl of H2O. The samples were mixed thoroughly and centrifuged 10,000 g for 1 min. Chloroform phases containing extracted lipids were passed through mini-columns of silica gel, followed by a wash with 400 μl of chloroform. The eluates from the silica columns, containing released [^14C]palmitic acid, were collected and analysed by scintillation counting.

[1] = system: Developing Elm Seed Soluble PLA2; assay: Effects of reduction, EGTA and heat on PLA2 activity; details: for PLA2 Activity Released [^14C] fatty acids: control 4740 dpm; for sensitivity of PLA2 activities to reducing agents: purified soluble and microsomal PLA2s
Experimental: as §1

[2] = system: soluble developing elm seed PLA2; assay: Position specificity of soluble PLA2 (partly purified fraction)
Experimental: as §1

| SMILES | Recovered ^14C activity in LPC (microsomal PLA2) | Recovered ^14C activity in PC (microsomal PLA2) | Recovered ^14C activity in fatty acid (microsomal PLA2) | sensitivity of PLA2 activities to reducing agents [1] | other results |
| --- | --- | --- | --- | --- | --- |
| CCCCCCCCCCCCCCCC(=O)OC[C@H](COP(=O)([O-])OCC[N+](C)(C)C)OC(=O)CCCCCCCCC [sn-1-16:0-sn-2-[^14C]10:0-PC, sn-1-palmitoyl-sn-2-[^14C]decanoyl-sn-glycerol-3-phosphocholine] | 0.6 % of total recovery | 54 % of total recovery | 44 % of total recovery | – | – |
| O=C(O)CN(CCOCCOCCN(CC(=O)O)CC(=O)O)CC(=O)O [EGTA] | – | – | – | – | PLA2 Activity Released [^14C] fatty acids ([1]; EGTA 10 mM): 170 dpm |
| CCCCCCCCCCCCCCCC(=O)OC[C@H](COP(=O)([O-])OCC[N+](C)(C)C)OC(=O)CCCCCCCCCCCCCCC [sn-1-16:0-sn-2-[^14C]16:0-PC, sn-1-palmitoyl-sn-2-[^14C]palmitoyl-sn-glycerol-sn-3-phosphocholine] | 0.8 % of total recovery | 65 % of total recovery | 34 % of total recovery | – | Recovered ^14C activity in LPC [2]: 0.6 % of total recovery; Recovered ^14C activity in PC [2]: 56 % of total recovery; Recovered ^14C activity in fatty acid [2]: 44 % of total recovery |
| O[C@H](CS)[C@H](O)CS (racemic) [DTT, dithiothreitol] | – | – | – | sensitive | – |
| OCCS [Mercaptoethanol] | – | – | – | sensitive | PLA2 Activity Released [^14C] fatty acids ([1]; Mercaptoethanol 1% (v/v)): 170 dpm |
